Activity calls are given as the source filed them. No cut-off for these calls is given here.
Key:
[1] = Induction of cell differentiation in C57BL/6 mouse naive regulatory T cells assessed as increase in […] mRNA level by measuring fold change at 3 uM incubated for 72 hrs by qRT-PCR analysis; assay type: functional
Mus musculus [2] = test: Anti-colitis activity in DSS-induced ulcerative colitis C57BL/6 mouse model assessed as increase in CD4+CD25+Foxp3+ Treg cell ratio in mesenteric lymph nodes at 40 mg/kg, po administered once a day for 10 days by flow cytometric analysis (reference value: 4.5 %); assay type: functional; settings: time 10 day
Mus musculus [3] = test: Anti-colitis activity in DSS-induced ulcerative colitis C57BL/6 mouse model assessed as CD4+CD25+Foxp3+ Treg cell percentage in spleen at 40 mg/kg, po administered once a day for 10 days by flow cytometric analysis (reference value: 3.3%); assay type: functional; settings: time 10 day
[4] = target: T1, Aryl hydrocarbon receptor (Mus musculus, UniProt P30561); test: Activation of AhR transcription in C57BL/6 mouse naive T cells assessed as increase in CYP1A1 mRNA expression by measuring fold change at 3 uM by qRT-PCR analysis relative to control; assay type: cell-based; settings: T-cell, read-out: FC
T1 sequence (P30561 whole entry): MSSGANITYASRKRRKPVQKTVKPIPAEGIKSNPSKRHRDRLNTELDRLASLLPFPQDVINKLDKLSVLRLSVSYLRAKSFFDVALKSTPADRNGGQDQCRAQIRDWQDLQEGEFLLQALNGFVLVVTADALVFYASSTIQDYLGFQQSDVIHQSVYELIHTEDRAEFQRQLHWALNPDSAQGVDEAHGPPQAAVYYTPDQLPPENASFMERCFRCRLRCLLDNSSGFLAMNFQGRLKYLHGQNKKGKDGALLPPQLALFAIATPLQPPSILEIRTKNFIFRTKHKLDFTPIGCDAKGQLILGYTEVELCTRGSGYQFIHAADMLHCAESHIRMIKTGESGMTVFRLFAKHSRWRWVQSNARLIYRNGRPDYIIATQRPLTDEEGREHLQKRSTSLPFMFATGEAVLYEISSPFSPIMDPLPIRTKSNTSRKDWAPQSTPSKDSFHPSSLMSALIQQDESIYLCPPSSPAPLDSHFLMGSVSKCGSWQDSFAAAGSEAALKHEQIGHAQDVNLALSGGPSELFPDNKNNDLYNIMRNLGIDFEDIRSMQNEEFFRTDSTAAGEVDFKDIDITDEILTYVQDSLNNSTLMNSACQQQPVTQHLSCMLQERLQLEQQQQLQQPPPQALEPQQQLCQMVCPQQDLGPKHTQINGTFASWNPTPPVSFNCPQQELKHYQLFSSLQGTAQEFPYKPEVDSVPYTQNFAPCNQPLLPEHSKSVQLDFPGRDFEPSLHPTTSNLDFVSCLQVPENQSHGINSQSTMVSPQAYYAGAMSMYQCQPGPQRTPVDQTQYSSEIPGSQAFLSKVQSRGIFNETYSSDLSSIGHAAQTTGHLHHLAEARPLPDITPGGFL

Mus musculus [5] = test: Anti-colitis activity against DSS-induced ulcerative colitis C57BL/6 mouse model assessed as decrease in colon MPO activity at 40 mg/kg, po administered once a day for 10 days; assay type: functional, organism-based; settings: time 10.0 day
[6] = Induction of cell differentiation in C57BL/6 mouse naive regulatory T cells assessed as increase in cell frequency at 3 uM incubated for 72 hrs by flow cytometric analysis (reference value: 24.9%); assay type: functional
Mus musculus [7] = test: In vivo activation of AhR in C57BL/6 mouse assessed as increase in CYP1A1 mRNA expression at 40 mg/kg, po administered once a day for 10 days by qRT-PCR analysis; assay type: functional, organism-based; settings: time 10.0 day
[8] = Induction of cell differentiation in C57BL/6 mouse naive regulatory T cells assessed as increase in IL-10 mRNA level by measuring fold change at 3 uM incubated for 72 hrs by qRT-PCR analysis; assay type: functional
Mus musculus [9] = test: In vivo activation of AhR in C57BL/6 mouse assessed as increase in CYP1A1 mRNA expression at 100 mg/kg, po administered once a day for 10 days by qRT-PCR analysis; assay type: functional, organism-based; settings: time 10.0 day
Mus musculus [10] = test: Anti-colitis activity in DSS-induced ulcerative colitis C57BL/6 mouse model assessed as CD4+CD25+Foxp3+ Treg cell percentage in mesenteric lymph nodes at 100 mg/kg, po administered once a day for 10 days by flow cytometric analysis (reference value: 4.5 %); assay type: functional; settings: time 10 day
Mus musculus [11] = test: Anti-colitis activity in DSS-induced ulcerative colitis C57BL/6 mouse model assessed as CD4+CD25+Foxp3+ Treg cell percentage in spleen at 100 mg/kg, po administered once a day for 10 days by flow cytometric analysis (reference value: 3.3%); assay type: functional; settings: time 10 day

Row | fold induction at 3 µM [4] | Compound | fold change (FC) [1] | Activity (Mus musculus [2]) [%] | Activity (Mus musculus [3]) [%] | Activity (Mus musculus [5]) | Activity [6] [%] | Activity (Mus musculus [7]) | fold change (FC) [8] | Activity (Mus musculus [9]) | Activity (Mus musculus [10]) [%] | Activity (Mus musculus [11]) [%]
1 | 1.9 | c1ccc2c(Cc3c[nH]c4ccccc34)c[nH]c2c1 [ARUNDINE] | 2.1 | 6.8 | 2.7 | Active | 34.3 | Active | 2 | – | – | –
2 | – | Nc1ccc(O)c(C(=O)O)c1 [MESALAMINE] | – | – | – | – | – | – | – | Active | 4.4 | 2.6
